Test results taken from ChEMBL document CHEMBL1201862, “PubChem BioAssay data set” (2004).
Activity calls are given as the source filed them.

How the values were obtained:
[1] = target: T1, Neuropeptides B/W receptor type 1 (Homo sapiens, UniProt P48145); assay: Fluorescence-based dose response cell-based high throughput screening assay to identify antagonists of the G-protein coupled receptor 7 (GPR7). [Related pubchem assays: 1952 (Screening assay (GPR7 antagonists).), 1880 (Summary AID.)]; assay type: functional
T1 sequence (P48145 whole entry): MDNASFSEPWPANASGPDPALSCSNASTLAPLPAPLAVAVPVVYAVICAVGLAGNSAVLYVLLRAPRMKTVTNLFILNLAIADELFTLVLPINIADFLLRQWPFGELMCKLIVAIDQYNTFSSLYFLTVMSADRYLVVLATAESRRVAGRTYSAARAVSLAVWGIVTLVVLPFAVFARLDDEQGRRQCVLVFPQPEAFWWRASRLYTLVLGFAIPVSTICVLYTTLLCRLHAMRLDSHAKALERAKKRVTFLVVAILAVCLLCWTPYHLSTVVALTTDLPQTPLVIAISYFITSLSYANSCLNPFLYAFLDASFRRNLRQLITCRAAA

[2] = target: T2, Melanin-concentrating hormone receptor 1 (Homo sapiens, UniProt Q99705); assay: Fluorescence-based counterscreen for antagonists of the G-protein coupled receptor 7 (GPR7): cell-based high throughput dose response assay to identify antagonists of the melanin-concentrating hormone receptor 1 (MCHR1).; assay type: functional
[3] = target: T1, Neuropeptides B/W receptor type 1; assay: GPR7 antagonist potency, late-stage follow-up, cell-based, fluorescence, dose response (AID 463251); assay type: functional
[4] = target: T2, Melanin-concentrating hormone receptor 1; assay: Late-stage fluorescence-based counterscreen for antagonists of the G-protein coupled receptor 7 (GPR7): cell-based dose response assay to identify antagonists of the melanin-concentrating hormone receptor 1 (MCHR1). [Related pubchem assays (depositor defined):AID1861, AID1880, AID1952, AID2148, AID2251, AID2257, AID485339]; assay type: functional
[5] = target: T3, Eukaryotic translation initiation factor 4H (Homo sapiens, UniProt Q15056); assay: eIF4H inhibition in translation initiation, SAR follow-up (AID 435011); assay type: functional
[6] = target: T3, Eukaryotic translation initiation factor 4H; assay: human eIF4H binding inhibitors, primary screen, translation initiation inhibitor project, biochemical, uHTS, fluorescence polarization (AID 2012)
[7] = target: T4, Polyadenylate-binding protein 1 (Homo sapiens, UniProt P11940); assay: PABP inhibition in translation initiation, SAR follow-up (AID 435018); assay type: functional
[8] = target: DNA dC->dU-editing enzyme APOBEC-3G (Homo sapiens, UniProt Q9HC16); assay type: functional;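 further: Dose-response counterscreen measuring inhibition of APOBEC3G DNA deaminase activity, run while confirming APOBEC3A inhibitors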
[9] = target: DNA dC->dU-editing enzyme APOBEC-3A (Homo sapiens, UniProt P31941); assay: Dose Response confirmation of small molecule APOBEC3A DNA Deaminase Inhibitors via a fluorescence-based single-stranded DNA deaminase assay. [Related pubchem assays (depositor defined):AID493011, AID493024]; assay type: functional
[10] = target: T4, Polyadenylate-binding protein 1; assay: PABP poly(A) RNA binding inhibitors, primary screen, biochemical, fluorescence polarization, uHTS (AID 2014)
[11] = target: Intestinal-type alkaline phosphatase (Homo sapiens, UniProt P09923); assay: Dose Response confirmation of uHTS hits from a small molecule inhibitors of human intestinal alkaline phosphatase via a luminescent assay. [Related pubchem assays (depositor defined):AID2544, AID2574]; assay type: functional
HeLa = assay: HeLa cell cytotoxicity, dose response, cytotoxicity control, 24 h, cherry-picked samples (AID 504726); assay type: functional, cell-based; conditions: Homo sapiens;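 further: potency for cytotoxicity as loss of luminescence signal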
Genome polyprotein = Genome polyprotein (dengue virus type 2, UniProt P29990); assay: Dengue-2 NS5 methyltransferase inhibitors, primary screen, biochemical, confirmation dose response (AID 588689); assay type: functional
[12] = target: T5, Rac GTPase-activating protein 1 (Homo sapiens, UniProt Q9H0H5); assay: MgcRacGAP GTPase-activating activity inhibitors, confirmation, biochemical, ADP Hunter fluorescence, primary and confirmatory (AID 624330); assay type: functional
T5 sequence (Q9H0H5 whole entry): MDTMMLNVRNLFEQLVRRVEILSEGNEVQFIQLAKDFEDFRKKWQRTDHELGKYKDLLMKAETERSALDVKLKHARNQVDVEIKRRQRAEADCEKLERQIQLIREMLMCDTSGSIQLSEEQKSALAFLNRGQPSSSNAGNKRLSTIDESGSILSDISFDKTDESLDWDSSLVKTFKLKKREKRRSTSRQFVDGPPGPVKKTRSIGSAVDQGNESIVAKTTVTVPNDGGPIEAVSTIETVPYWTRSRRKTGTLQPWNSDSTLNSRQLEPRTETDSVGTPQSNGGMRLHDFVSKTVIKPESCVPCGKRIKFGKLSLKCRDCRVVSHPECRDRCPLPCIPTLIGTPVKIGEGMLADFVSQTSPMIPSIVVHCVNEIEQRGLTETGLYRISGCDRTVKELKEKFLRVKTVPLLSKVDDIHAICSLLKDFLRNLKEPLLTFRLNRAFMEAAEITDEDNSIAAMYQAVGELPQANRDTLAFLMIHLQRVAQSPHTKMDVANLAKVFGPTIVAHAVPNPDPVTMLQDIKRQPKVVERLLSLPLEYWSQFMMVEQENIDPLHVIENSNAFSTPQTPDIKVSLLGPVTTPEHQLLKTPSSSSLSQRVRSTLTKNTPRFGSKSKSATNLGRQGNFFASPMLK

[13] = target: T6, Small ubiquitin-related modifier 1 (Homo sapiens, UniProt P63165); assay: inhibitors of SUMO1 partner interactions, dose response, biochemical, FRET (AID 624383); assay type: functional; conditions: read-out: IC50_Mean
ORF 73 = ORF 73 (Human herpesvirus 8, UniProt O40947); assay: inhibitors of C-LANA binding to LBS DNA, dose response, biochemical, fluorescence polarization, cherry-picked samples (AID 504725); parameters: species or system Human gammaherpesvirus 8;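 further: fluorescence polarization of a labeled DNA duplex reporting LANA DNA binding; potency is for inhibitors that block LANA binding to the DNA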
[14] = target: T6, Small ubiquitin-related modifier 1; assay: inhibitors of SUMO1 peptide binding, dose response, biochemical, fluorescence polarization, uHTS hits (AID 624382); assay type: functional; conditions: read-out: IC50_Mean
Caspase-6 = target: T7, Caspase-6 (Homo sapiens, UniProt P55212); assay: human caspase-6 inhibitors, dose response, biochemical, VEID-R110 fluorescence, cherry-pick (AID 720632)
T7 sequence (P55212 whole entry): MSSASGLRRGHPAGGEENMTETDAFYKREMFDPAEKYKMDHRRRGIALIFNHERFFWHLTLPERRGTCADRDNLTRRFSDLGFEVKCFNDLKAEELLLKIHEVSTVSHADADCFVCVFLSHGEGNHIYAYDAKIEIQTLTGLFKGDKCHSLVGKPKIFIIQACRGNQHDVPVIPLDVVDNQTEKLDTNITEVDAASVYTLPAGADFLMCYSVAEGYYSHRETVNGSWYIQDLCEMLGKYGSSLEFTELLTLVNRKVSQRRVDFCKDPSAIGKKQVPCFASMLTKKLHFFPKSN

Aspartyl aminopeptidase = Aspartyl aminopeptidase (Plasmodium falciparum 3D7, UniProt Q8I2J3)
Procathepsin L = Procathepsin L (Homo sapiens, UniProt P07711)
[15] = Vero E6 cell cytotoxicity, dose response, cytotoxicity control for non-replicating M. tuberculosis project, secondary assay (AID 492998); assay type: functional, VeroE6; conditions: Vero C1008
cells = assay type: functional
[16] = Luminescence Cell-Based Dose Retest to Confirm Inhibitors of Cancer Stem Cells. [Related pubchem assays (depositor defined):AID2717, AID2721]; assay type: functional; conditions: Homo sapiens
[17] = target: Neurotensin receptor type 1 (Homo sapiens, UniProt P30989); assay type: functional;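 further: Image-based confirmatory dose-response assay measuring agonist activity at NTR1; NTR1-expressing U2OS osteosarcoma cells imaged for beta-arrestin GFP spot formation; agonist potency where compounds increase beta-arrestin recruitment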
[18] = THP-1 cell cytotoxicity, dose response, cytotoxicity control for non-replicating M. tuberculosis project (AID 489025); assay type: functional
[19] = HepG2 cell cytotoxicity, dose response, cytotoxicity control for non-replicating M. tuberculosis project (AID 489018); assay type: functional; conditions: Mycobacterium tuberculosis
[20] = target: G-protein coupled receptor 55 (Homo sapiens, UniProt Q9Y2T6); assay: GPR55 antagonists blocking LPI-driven arrestin recruitment, primary screen, imaging, U2OS, beta-arrestin-GFP, LPI agonist (AID 2013); assay type: functional;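 further: antagonist potency measured as reduced agonist-driven arrestin aggregation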
Sequence of G-protein coupled receptor 55 (Q9Y2T6 whole entry): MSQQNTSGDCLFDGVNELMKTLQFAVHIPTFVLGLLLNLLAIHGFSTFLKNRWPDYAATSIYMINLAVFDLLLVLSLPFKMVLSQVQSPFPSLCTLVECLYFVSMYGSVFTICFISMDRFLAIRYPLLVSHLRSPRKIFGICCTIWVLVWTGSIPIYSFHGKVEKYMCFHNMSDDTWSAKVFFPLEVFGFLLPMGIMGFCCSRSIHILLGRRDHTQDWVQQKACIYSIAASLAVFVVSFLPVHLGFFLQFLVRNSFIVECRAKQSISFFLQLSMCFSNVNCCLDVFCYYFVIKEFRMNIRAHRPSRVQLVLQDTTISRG

T4 sequence (P11940 whole entry): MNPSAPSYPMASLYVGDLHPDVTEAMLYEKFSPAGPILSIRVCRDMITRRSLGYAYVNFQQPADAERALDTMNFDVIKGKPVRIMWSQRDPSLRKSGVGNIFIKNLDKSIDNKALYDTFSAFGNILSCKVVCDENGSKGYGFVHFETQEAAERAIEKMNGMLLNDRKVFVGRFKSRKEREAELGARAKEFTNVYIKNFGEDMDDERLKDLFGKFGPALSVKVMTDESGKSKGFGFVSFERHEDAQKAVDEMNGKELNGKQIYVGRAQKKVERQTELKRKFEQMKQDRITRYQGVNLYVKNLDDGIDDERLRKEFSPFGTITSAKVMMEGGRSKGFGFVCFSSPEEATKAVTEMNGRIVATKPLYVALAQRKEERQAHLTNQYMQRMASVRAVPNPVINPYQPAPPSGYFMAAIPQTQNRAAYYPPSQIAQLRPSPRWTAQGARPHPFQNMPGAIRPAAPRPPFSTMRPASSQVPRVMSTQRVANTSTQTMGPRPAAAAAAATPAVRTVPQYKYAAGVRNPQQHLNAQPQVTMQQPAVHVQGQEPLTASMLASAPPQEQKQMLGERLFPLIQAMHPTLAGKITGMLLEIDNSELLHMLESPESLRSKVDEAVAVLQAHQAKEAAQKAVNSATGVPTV
T6 sequence (P63165 whole entry): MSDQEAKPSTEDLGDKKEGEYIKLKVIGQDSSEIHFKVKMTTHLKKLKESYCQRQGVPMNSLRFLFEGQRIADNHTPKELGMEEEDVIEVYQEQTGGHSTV
T2 sequence (Q99705 whole entry): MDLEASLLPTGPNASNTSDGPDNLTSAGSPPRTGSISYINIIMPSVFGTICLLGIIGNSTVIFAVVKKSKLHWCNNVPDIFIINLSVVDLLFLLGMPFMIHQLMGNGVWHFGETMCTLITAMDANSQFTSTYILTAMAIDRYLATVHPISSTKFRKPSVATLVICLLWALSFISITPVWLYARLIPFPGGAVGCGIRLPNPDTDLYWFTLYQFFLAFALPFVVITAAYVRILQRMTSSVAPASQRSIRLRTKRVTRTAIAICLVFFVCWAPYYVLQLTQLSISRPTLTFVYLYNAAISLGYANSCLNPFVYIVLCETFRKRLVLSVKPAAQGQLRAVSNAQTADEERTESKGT
Sequence of ORF 73 (O40947 whole entry): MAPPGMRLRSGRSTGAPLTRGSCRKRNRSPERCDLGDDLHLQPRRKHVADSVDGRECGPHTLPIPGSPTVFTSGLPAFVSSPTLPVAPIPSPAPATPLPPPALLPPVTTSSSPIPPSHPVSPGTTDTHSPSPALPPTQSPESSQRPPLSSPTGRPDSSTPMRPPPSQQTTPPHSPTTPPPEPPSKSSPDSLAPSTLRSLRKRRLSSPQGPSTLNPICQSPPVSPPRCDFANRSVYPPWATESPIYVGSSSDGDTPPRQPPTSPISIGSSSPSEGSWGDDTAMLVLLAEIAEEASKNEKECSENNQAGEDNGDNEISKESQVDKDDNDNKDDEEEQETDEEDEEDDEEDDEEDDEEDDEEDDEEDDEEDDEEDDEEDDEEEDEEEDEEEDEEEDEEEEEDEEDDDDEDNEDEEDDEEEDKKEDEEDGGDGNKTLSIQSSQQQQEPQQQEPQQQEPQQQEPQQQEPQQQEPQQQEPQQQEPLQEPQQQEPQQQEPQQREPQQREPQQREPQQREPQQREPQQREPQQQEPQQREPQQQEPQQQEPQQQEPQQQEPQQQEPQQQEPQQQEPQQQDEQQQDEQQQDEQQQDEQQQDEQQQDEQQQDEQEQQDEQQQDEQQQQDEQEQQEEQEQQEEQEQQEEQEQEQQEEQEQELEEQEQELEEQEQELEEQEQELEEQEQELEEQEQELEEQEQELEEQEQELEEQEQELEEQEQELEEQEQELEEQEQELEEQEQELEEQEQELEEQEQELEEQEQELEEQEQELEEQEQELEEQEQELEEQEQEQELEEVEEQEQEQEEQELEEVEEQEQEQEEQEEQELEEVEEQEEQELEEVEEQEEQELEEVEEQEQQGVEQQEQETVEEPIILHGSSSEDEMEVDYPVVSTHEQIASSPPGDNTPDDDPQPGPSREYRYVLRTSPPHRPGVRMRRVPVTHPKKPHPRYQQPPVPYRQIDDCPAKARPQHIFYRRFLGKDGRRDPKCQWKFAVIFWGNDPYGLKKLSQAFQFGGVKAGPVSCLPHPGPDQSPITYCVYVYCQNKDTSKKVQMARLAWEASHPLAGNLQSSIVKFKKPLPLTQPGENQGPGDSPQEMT
Sequence of DNA dC->dU-editing enzyme APOBEC-3A (P31941 whole entry): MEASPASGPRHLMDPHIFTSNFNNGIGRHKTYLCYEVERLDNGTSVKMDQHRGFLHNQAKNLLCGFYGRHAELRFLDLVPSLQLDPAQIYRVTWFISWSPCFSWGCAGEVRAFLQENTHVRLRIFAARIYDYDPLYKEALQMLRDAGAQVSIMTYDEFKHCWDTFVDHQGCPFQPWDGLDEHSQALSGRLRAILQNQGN
Sequence of Aspartyl aminopeptidase (Q8I2J3 whole entry): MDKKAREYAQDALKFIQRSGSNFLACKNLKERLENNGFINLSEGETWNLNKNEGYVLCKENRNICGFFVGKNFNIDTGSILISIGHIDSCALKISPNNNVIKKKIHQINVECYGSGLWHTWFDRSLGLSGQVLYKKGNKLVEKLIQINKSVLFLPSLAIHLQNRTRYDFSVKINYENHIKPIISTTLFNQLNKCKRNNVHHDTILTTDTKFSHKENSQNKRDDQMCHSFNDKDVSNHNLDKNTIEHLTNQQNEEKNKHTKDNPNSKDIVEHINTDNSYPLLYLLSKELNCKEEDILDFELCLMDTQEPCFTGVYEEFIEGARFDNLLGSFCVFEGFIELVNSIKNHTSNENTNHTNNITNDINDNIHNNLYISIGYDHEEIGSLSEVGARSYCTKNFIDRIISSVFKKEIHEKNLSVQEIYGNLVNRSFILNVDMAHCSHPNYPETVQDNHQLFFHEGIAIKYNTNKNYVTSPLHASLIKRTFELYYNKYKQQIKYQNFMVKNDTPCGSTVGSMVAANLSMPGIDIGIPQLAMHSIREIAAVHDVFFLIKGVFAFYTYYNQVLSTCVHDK
Sequence of Genome polyprotein (P29990 2492-3391 limits assumed): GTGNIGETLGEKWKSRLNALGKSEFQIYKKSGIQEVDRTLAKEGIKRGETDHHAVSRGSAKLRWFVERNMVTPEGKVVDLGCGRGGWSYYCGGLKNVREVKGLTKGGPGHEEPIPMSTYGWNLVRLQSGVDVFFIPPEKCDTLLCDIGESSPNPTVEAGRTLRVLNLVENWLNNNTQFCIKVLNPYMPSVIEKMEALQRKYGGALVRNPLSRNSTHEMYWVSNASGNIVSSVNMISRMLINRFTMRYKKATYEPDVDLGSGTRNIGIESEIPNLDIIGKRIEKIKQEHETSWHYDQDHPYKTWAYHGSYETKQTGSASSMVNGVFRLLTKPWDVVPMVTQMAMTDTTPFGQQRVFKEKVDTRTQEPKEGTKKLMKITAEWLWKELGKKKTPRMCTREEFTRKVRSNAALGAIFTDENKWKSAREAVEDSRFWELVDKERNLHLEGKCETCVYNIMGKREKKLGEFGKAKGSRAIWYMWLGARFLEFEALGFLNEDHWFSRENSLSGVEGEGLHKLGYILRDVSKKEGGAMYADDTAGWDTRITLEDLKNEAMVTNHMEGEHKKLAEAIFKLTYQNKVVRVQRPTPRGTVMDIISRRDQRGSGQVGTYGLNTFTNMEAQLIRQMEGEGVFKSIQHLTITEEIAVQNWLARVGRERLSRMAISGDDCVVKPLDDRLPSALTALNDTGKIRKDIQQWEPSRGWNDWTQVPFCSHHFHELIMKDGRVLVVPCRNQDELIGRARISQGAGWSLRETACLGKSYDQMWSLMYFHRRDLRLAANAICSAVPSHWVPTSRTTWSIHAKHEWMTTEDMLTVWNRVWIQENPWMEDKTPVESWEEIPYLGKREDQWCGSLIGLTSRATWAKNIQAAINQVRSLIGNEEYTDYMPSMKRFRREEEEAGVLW
Sequence of Procathepsin L (P07711 whole entry): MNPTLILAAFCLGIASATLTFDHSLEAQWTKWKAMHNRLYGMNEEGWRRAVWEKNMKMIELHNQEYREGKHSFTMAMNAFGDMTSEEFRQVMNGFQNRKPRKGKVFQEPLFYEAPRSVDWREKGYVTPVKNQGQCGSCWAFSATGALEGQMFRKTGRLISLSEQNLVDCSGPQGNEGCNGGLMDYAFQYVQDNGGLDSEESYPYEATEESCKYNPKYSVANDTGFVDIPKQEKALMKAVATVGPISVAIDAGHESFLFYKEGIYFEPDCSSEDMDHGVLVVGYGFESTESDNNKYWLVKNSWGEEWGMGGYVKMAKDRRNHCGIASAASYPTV

With `COc1cc(OC)c(S(=O)(=O)N2CCCCC2)cc1S(=O)(=O)N1CCCCC1` the IC50 [1] was 7.02 µM (active), the IC50 [2] was > 43.8 µM (not active) and the IC50 [3] was > 20 µM (inactive). For the same compound, the IC50 [4] was > 20 µM (inactive).
For `CC(C)NC(=O)C(C)N1CCN(S(=O)(=O)c2ccc3ccccc3c2)CC1` (configuration not stated), the IC50 [5] was 27.6 µM (active), the IC50 [6] was 88.9 µM (active) and the IC50 [7] was 20.5 µM (active). For the same compound, the IC50 [8] was 3.72 µM (active), the IC50 [9] was 3.38 µM (active) and the IC50 [10] was 5.92 µM (active).
In the case of `CCn1c2ccccc2c2cc(NC(=O)c3coc(=O)c(Br)c3)ccc21`, the IC50 [11] is reported as 55.6 µM (inactive).
In the case of `CNC(S)=Nc1cccc(C(=O)OC)c1`, the AC50 (HeLa) is reported as 213 µM (active).
With `CC(=O)Nc1ccc(S(=O)(=O)Nc2nc3ccccc3nc2Nc2ccc(C(=O)O)c(O)c2)cc1` the IC50 (Genome polyprotein) was > 100 µM (active), the IC50 [12] was 166 µM (active) and the IC50 [13] was 88.1 µM (inactive). The AC50 (ORF 73) was 42.3 µM (active), the IC50 [14] was > 66.6 µM (inactive) and the AC50 (Caspase-6) was 13.2 µM (active).
In the case of `CCOC(=O)c1ccc(NC(=O)Nn2cnnc2)cc1`, the IC50 (Aspartyl aminopeptidase) is reported as 2.09 µM (active) and the IC50 (Procathepsin L) is reported as > 59.6 µM (not active).
For `Cc1ccc2c(c1)c1c(n2CC(O)CNC2CCCCC2)CCCC1` (configuration not stated), the CC50 [15] was > 20 µM (active), the IC50 (cells) was 33.4 µM (active) and the AC50 [16] was 9.21 µM (active). The EC50 [17] was 17 µM (active), the CC50 [18] was 12.1 µM (active) and the CC50 [19] was 11.9 µM (active).
In the case of `Cc1cc(Cl)ccc1NC(=S)N(CCCN1CCOCC1)Cc1cccs1`, the IC50 [20] is reported as 6.24 µM (active).
